Molecular target: IKZF2 Helios (Homo sapiens, UniProt Q96SW2+Q9UKS7)
Assay: Jurkat Cellular Degradation Assay, IKZF2
Assay type: cell-based
Set-up: endogenous in cells
Conditions: 72 h, Jurkat cells; for Dmax: Jurkat, human, 100% = complete degradation, 0% = no detectable degradation, read-out: IKZF2 Helios max % deg. observed
Protocol: Jurkat cells were plated at 80,000 cells/well in 40 μL RPMI+10% FBS in a 384-well cell culture plate prior to using acoustic dispensing technology for adding a compound of interest. Cell cultures were incubated for 72 h at 37° C. and 5% CO2. In order to facilitate analysis, cell cultures were spun down at 200 rpm for 5 min and the supernatant was discarded. After shaking the plate to dislodge the cell pellet, cells were resuspended in 50 μL of Fixation Buffer (eBioscience FoxP3 buffer set 00-5523-00) for 60 min at room temperature. After centrifuging and discarding the supernatant, cells were permeabilized with 50 μL of Permeabilization buffer (eBioscience FoxP3 buffer set 00-5523-00) for 10 min at room temperature. Following permeabilization, cells were spun down and the supernatant was replaced with 20 μL fluorescently labelled antibodies against Helios, Ikaros and Aiolos or corresponding Isotype controls in 1× Permeabilization buffer (Ikaros-Alexa488 [Biolegend, Cat #368408, 1:50], Helios-PE [CST, Cat #29360, 1:50], Aiolos-Alexa647 [Biolegend, Cat #371106 Biolegend, 1:25]) and staining reactions were incubated for 1 h at room temperature while protected from light. Subsequently, 30 μL of 1× Permeabilization buffer was added prior to centrifuging the cells and discarding the supernatant. Stained cells were resuspended in 25 μL of flow cytometry staining buffer [PBS+0.2% bovine serum albumin (BSA)] and analyzed using an Intellicyt Ique Plus flow cytometer.
Table A-1 lists the maximum observed degradation of the IKZF1 protein, IKZF2 protein, and IKZF3 protein as measured in the Jurkat Cellular Degradation assay. The results in Table A-1 were rounded to two digits. In the Jurkat Cellular Degradation assay, a value of 100% indicated no detectable protein remaining or complete degradation of the protein; and a value of 0% indicated no detectable degradation of the protein by the test compound.

Sequence of IKZF2 Helios (Q9UKS7 whole entry): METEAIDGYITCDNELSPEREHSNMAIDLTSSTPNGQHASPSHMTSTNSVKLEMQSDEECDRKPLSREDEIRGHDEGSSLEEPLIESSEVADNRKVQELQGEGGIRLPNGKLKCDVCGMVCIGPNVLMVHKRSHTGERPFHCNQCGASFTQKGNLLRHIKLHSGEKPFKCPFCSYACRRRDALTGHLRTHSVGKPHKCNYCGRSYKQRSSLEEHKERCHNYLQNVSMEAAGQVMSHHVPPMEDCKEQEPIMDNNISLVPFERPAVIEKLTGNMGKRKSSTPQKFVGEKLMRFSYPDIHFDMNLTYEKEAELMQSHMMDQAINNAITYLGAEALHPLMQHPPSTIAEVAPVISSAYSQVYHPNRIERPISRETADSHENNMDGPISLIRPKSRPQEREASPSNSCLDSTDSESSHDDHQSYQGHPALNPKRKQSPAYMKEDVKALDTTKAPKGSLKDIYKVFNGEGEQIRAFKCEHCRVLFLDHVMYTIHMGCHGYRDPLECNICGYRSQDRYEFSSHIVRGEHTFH
Sequence of IKZF2 Helios (Q96SW2 whole entry): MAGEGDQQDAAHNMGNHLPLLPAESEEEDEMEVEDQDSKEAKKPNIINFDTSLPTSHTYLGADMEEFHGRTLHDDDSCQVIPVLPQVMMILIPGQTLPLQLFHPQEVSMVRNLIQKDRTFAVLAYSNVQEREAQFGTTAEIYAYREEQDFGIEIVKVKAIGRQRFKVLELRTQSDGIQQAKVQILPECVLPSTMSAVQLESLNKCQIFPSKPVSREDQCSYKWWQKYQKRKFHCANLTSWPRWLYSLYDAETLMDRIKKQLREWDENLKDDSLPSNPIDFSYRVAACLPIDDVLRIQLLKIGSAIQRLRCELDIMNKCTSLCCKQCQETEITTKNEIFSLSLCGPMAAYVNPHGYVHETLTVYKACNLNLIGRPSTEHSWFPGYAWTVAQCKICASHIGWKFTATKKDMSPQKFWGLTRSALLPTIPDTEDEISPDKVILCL
Sequence of IKZF2 Helios (Q16531 whole entry partner): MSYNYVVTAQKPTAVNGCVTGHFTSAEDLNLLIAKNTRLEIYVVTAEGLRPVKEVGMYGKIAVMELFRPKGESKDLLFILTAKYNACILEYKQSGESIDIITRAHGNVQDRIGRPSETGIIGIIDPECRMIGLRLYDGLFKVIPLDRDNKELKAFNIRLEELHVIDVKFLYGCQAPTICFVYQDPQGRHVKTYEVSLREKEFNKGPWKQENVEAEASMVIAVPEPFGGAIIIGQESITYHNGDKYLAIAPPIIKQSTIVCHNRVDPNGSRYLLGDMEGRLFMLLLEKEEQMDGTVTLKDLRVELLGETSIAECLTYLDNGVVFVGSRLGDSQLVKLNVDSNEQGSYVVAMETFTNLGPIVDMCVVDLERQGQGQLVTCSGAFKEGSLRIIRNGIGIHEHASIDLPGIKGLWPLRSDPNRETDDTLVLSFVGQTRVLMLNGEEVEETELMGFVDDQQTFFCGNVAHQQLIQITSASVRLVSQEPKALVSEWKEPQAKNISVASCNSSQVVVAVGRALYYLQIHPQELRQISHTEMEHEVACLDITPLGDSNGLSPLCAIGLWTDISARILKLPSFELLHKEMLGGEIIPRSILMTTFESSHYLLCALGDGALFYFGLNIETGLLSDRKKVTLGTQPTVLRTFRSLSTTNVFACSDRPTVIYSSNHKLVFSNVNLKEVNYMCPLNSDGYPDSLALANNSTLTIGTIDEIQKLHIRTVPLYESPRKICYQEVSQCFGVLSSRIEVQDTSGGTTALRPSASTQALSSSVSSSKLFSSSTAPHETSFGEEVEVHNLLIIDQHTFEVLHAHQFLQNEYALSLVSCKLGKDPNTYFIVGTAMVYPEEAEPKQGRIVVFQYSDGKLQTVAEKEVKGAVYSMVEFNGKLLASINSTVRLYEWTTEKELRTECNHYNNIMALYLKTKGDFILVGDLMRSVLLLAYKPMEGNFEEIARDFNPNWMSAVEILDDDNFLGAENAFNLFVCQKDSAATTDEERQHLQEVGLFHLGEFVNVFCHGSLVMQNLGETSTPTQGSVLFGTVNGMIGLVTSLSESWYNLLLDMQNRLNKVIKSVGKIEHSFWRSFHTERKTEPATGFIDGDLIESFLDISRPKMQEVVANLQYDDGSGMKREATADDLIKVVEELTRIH

How did the Dmax turn out when O=C1CCC(n2cc(-c3ccccc3)oc2=O)C(=O)N1 (stereo not drawn) [Comparative Compound A, 3-(2-oxo-5-phenyloxazol-3(2H)-yl)piperidine-2,6-dione] was run?
Its Dmax is < 30%.

What does the source list for Cc1cc(-c2ccc(-c3cn(C4CCC(=O)NC4=O)c(=O)o3)c(F)c2)nc(N)c1OC(F)F (stereo not drawn) [Example 1, 3-(5-(4-(6-Amino-5-(difluoromethoxy)-4-methylpyridin-2-yl)-2-fluorophenyl)-2-oxooxazol-3(2H)-yl)piperidine-2,6-dione]?
DC50 (concentration reducing protein level by 50% vs DMSO): 17.9 nM; Dmax: > 90%
